Results as given in article PMC5218480 (PLoS ONE, 2017).

System: MV-4-11 cells
Assay: Gene expression microarray analysis (Affymetrix PrimeView) and GSEA
Assay type: cell-based, human
Set-up: RFU PODN (11730768_x_at) / Fold change /veh PODN (11730768_x_at) / RFU LINC00158 (11744669_a_at) / Fold change /veh LINC00158 (11744669_a_at) / RFU DUSP10 (11751237_a_at) / Fold change /veh DUSP10 (11751237_a_at) / RFU ID3 (11757404_x_at) / Fold change /veh ID3 (11757404_x_at) / RFU PLEKHG5 (11737974_s_at) / Fold change /veh PLEKHG5 (11737974_s_at) / RFU LRRC4B (11730491_at) / Fold change /veh LRRC4B (11730491_at) / RFU GIMAP4 (11747438_a_at) / Fold change /veh GIMAP4 (11747438_a_at) / RFU KRT8 (11758183_x_at) / Fold change /veh KRT8 (11758183_x_at) / RFU CNN1 (11734310_a_at) / Fold change /veh CNN1 (11734310_a_at) / RFU VPS37D (11726825_at) / Fold change /veh VPS37D (11726825_at) / RFU C10orf10 (11716522_x_at) / Fold change /veh C10orf10 (11716522_x_at) / RFU KIR2DL2 /// KIR2DL4 /// KIR2DL5A /// KIR2DL5B /// KIR2DS1 /// KIR2DS2 /// KIR2DS3 /// KIR2DS4 /// KIR3DL3 /// KIR3DL3 /// KIR3DS1 (11738374_at) / Fold change /veh KIR2DL2 /// KIR2DL4 /// KIR2DL5A /// KIR2DL5B /// KIR2DS1 /// KIR2DS2 /// KIR2DS3 /// KIR2DS4 /// KIR3DL3 /// KIR3DL3 /// KIR3DS1 (11738374_at) / RFU C1QL1 (11718748_at) / Fold change /veh C1QL1 (11718748_at) / RFU TMPRSS4 (11747572_a_at) / Fold change /veh TMPRSS4 (11747572_a_at) / RFU HAMP (11756126_x_at) / Fold change /veh HAMP (11756126_x_at) / RFU RNFT2 (11725882_a_at) / Fold change /veh RNFT2 (11725882_a_at) / RFU NR4A2 (11747474_a_at) / Fold change /veh NR4A2 (11747474_a_at) / RFU ABCC12 (11746883_a_at) / Fold change /veh ABCC12 (11746883_a_at) / RFU TMEM136 (11760407_x_at) / Fold change /veh TMEM136 (11760407_x_at) / RFU CLDN22 /// WWC2 (11732394_at) / Fold change /veh CLDN22 /// WWC2 (11732394_at) / RFU HLA-DPB1 (11760878_x_at) / Fold change /veh HLA-DPB1 (11760878_x_at) / RFU SPINT1 (11716480_a_at) / Fold change /veh SPINT1 (11716480_a_at) / RFU GAP43 (11754022_s_at) / Fold change /veh GAP43 (11754022_s_at) / RFU A4GNT (11735810_at) / Fold change /veh A4GNT (11735810_at) / RFU PRB3 (11715151_x_at) / Fold change /veh PRB3 (11715151_x_at) / RFU TUBB4B (11761932_at) / Fold change /veh TUBB4B (11761932_at) / RFU CAPN14 (11732068_a_at) / Fold change /veh CAPN14 (11732068_a_at) / RFU TMCC2 (11721928_a_at) / Fold change /veh TMCC2 (11721928_a_at) / RFU IRGQ (11745062_a_at) / Fold change /veh IRGQ (11745062_a_at) / RFU FAM174B (11720279_a_at) / Fold change /veh FAM174B (11720279_a_at) / RFU TMPRSS4 (11748680_a_at) / Fold change /veh TMPRSS4 (11748680_a_at) / RFU FAM212B (11763350_a_at) / Fold change /veh FAM212B (11763350_a_at) / RFU PLEKHG5 (11743358_a_at) / Fold change /veh PLEKHG5 (11743358_a_at) / RFU ZSCAN30 (11745921_a_at) / Fold change /veh ZSCAN30 (11745921_a_at) / RFU CMKLR1 (11741424_a_at) / Fold change /veh CMKLR1 (11741424_a_at) / RFU LOC101060620 /// MAPK8IP1 (11723275_at) / Fold change /veh LOC101060620 /// MAPK8IP1 (11723275_at) / RFU SPTSSB (11747773_x_at) / Fold change /veh SPTSSB (11747773_x_at) / RFU PRSS12 (11739890_at) / Fold change /veh PRSS12 (11739890_at) / RFU BIN1 (11741810_x_at) / Fold change /veh BIN1 (11741810_x_at) / RFU WNT11 (11732464_a_at) / Fold change /veh WNT11 (11732464_a_at) / RFU C10orf10 (11716521_a_at) / Fold change /veh C10orf10 (11716521_a_at) / RFU C5orf56 (11738089_at) / Fold change /veh C5orf56 (11738089_at) / RFU CYB561 (11721691_x_at) / Fold change /veh CYB561 (11721691_x_at) / RFU ANKRD19P (11752326_a_at) / Fold change /veh ANKRD19P (11752326_a_at) / RFU OR2T12 /// OR2T33 /// OR2T8 (11738714_s_at) / Fold change /veh OR2T12 /// OR2T33 /// OR2T8 (11738714_s_at) / RFU VCAN (11748164_a_at) / Fold change /veh VCAN (11748164_a_at) / RFU JSRP1 (11732532_at) / Fold change /veh JSRP1 (11732532_at) / RFU KRTAP10-11 (11738290_x_at) / Fold change /veh KRTAP10-11 (11738290_x_at) / RFU MYO3A (11730013_a_at) / Fold change /veh MYO3A (11730013_a_at) / RFU EBF3 (11725865_a_at) / Fold change /veh EBF3 (11725865_a_at) / RFU CAMK2N1 (11719241_x_at) / Fold change /veh CAMK2N1 (11719241_x_at) / RFU C5orf56 (11738088_a_at) / Fold change /veh C5orf56 (11738088_a_at) / RFU OLFML3 (11715873_a_at) / Fold change /veh OLFML3 (11715873_a_at) / RFU LOC100653217 /// NTM (11731650_a_at) / Fold change /veh LOC100653217 /// NTM (11731650_a_at) / RFU MAPK11 (11762145_a_at) / Fold change /veh MAPK11 (11762145_a_at) / RFU FIZ1 (11724087_x_at) / Fold change /veh FIZ1 (11724087_x_at) / RFU OASL (11726364_x_at) / Fold change /veh OASL (11726364_x_at) / RFU SOX15 (11748057_x_at) / Fold change /veh SOX15 (11748057_x_at) / RFU CD79A (11719716_a_at) / Fold change /veh CD79A (11719716_a_at) / RFU HIST1H1D (11736915_at) / Fold change /veh HIST1H1D (11736915_at) / RFU CASKIN2 (11723855_a_at) / Fold change /veh CASKIN2 (11723855_a_at) / RFU LOC730098 (11760151_x_at) / Fold change /veh LOC730098 (11760151_x_at) / RFU OR4N2 (11742367_at) / Fold change /veh OR4N2 (11742367_at) / RFU PRRT2 (11749266_a_at) / Fold change /veh PRRT2 (11749266_a_at) / RFU SNX32 (11753110_a_at) / Fold change /veh SNX32 (11753110_a_at) / RFU CDHR5 (11726645_a_at) / Fold change /veh CDHR5 (11726645_a_at) / RFU RCAN1 (11760418_a_at) / Fold change /veh RCAN1 (11760418_a_at) / RFU FAM167A (11723789_a_at) / Fold change /veh FAM167A (11723789_a_at) / RFU FAM26E (11764081_at) / Fold change /veh FAM26E (11764081_at) / RFU ISYNA1 (11749810_s_at) / Fold change /veh ISYNA1 (11749810_s_at) / RFU ACY1 (11761880_at) / Fold change /veh ACY1 (11761880_at) / RFU 11764098_at / Fold change /veh 11764098_at / RFU SAMD14 (11745864_x_at) / Fold change /veh SAMD14 (11745864_x_at) / RFU NPB (11741838_a_at) / Fold change /veh NPB (11741838_a_at) / RFU TMPRSS6 (11731388_a_at) / Fold change /veh TMPRSS6 (11731388_a_at) / RFU KRTAP10-2 (11738614_at) / Fold change /veh KRTAP10-2 (11738614_at) / RFU ARHGAP8 /// PRR5-ARHGAP8 (11727945_x_at) / Fold change /veh ARHGAP8 /// PRR5-ARHGAP8 (11727945_x_at) / RFU KRTAP5-7 /// NADSYN1 (11734609_at) / Fold change /veh KRTAP5-7 /// NADSYN1 (11734609_at) / RFU RASL12 (11751679_a_at) / Fold change /veh RASL12 (11751679_a_at) / RFU CDKN2B (11736163_a_at) / Fold change /veh CDKN2B (11736163_a_at) / RFU PRF1 (11729649_at) / Fold change /veh PRF1 (11729649_at) / RFU, ZNF638 /// ZNF638-IT1 / Fold change vs veh, ZNF638 /// ZNF638-IT1 / RFU, PANK3 / Fold change vs veh, PANK3 / RFU, SH3YL1 / Fold change vs veh, SH3YL1 / RFU, ZEB2 / Fold change vs veh, ZEB2 / RFU, NRIP1 / Fold change vs veh, NRIP1 / RFU, PTTG1IP / Fold change vs veh, PTTG1IP / RFU, CAPN2 / Fold change vs veh, CAPN2 / RFU, MED14 / Fold change vs veh, MED14 / RFU, SNORA58 / Fold change vs veh, SNORA58 / RFU, C1orf63 / Fold change vs veh, C1orf63 / RFU, LRRFIP1 / Fold change vs veh, LRRFIP1 / RFU, NDUFAF7 / Fold change vs veh, NDUFAF7 / RFU, SLC12A2 / Fold change vs veh, SLC12A2 / RFU, IBTK / Fold change vs veh, IBTK / RFU, ESF1 / Fold change vs veh, ESF1 / Fold change vs veh, TMEM50B / RFU, TAOK1 / Fold change vs veh, TAOK1 / RFU, ACBD3 / Fold change vs veh, ACBD3 / RFU, TMA16 / Fold change vs veh, TMA16 / RFU, RWDD3 / Fold change vs veh, RWDD3 / RFU, BCAT1 / Fold change vs veh, BCAT1 / RFU, EDEM3 / Fold change vs veh, EDEM3 / RFU, TMEM33 / Fold change vs veh, TMEM33 / RFU, WDR75 / Fold change vs veh, WDR75 / RFU, AHCTF1 / Fold change vs veh, AHCTF1 / RFU, TFRC / Fold change vs veh, TFRC / RFU, ZDHHC17 / Fold change vs veh, ZDHHC17 / RFU, NOM1 / Fold change vs veh, NOM1 / RFU, ARL8B / Fold change vs veh, ARL8B / RFU, ZBTB11 / Fold change vs veh, ZBTB11 / RFU, TAMM41 / Fold change vs veh, TAMM41 / RFU, KIAA1704 /// LOC100996395 / Fold change vs veh, KIAA1704 /// LOC100996395 / RFU, ING1 / Fold change vs veh, ING1 / RFU, TRMT61B / Fold change vs veh, TRMT61B / RFU, FUBP3 / Fold change vs veh, FUBP3 / RFU, TP53 / Fold change vs veh, TP53 / RFU, TNKS2 / Fold change vs veh, TNKS2 / RFU, ZFP14 / Fold change vs veh, ZFP14 / RFU, ACTR2 / Fold change vs veh, ACTR2 / RFU, PPP3R1 / Fold change vs veh, PPP3R1 / RFU, PIK3R1 / Fold change vs veh, PIK3R1 / RFU, HNRNPA1 / Fold change vs veh, HNRNPA1 / RFU, RNF170 / Fold change vs veh, RNF170 / RFU, ZNF28 / Fold change vs veh, ZNF28 / RFU, RNGTT / Fold change vs veh, RNGTT / RFU, OGT / Fold change vs veh, OGT / RFU, BRD1 / Fold change vs veh, BRD1 / RFU, MARS / Fold change vs veh, MARS / RFU, ZNF655 / Fold change vs veh, ZNF655 / RFU, FAHD1 / Fold change vs veh, FAHD1 / RFU, BDP1 / Fold change vs veh, BDP1 / RFU, LRRCC1 / Fold change vs veh, LRRCC1 / RFU, ARID1A / Fold change vs veh, ARID1A / RFU, ZNF146 / Fold change vs veh, ZNF146 / RFU, ZNF330 / Fold change vs veh, ZNF330 / RFU, GPN3 / Fold change vs veh, GPN3 / RFU, C9orf123 / Fold change vs veh, C9orf123 / RFU, N4BP2L2 / Fold change vs veh, N4BP2L2 / RFU, ARFIP1 / Fold change vs veh, ARFIP1 / RFU, FAM179B / Fold change vs veh, FAM179B / RFU, BCL10 / Fold change vs veh, BCL10 / RFU, UHRF1BP1L / Fold change vs veh, UHRF1BP1L / RFU, BET1 / Fold change vs veh, BET1 / RFU, CNOT2 / Fold change vs veh, CNOT2 / RFU, ZNF268 / Fold change vs veh, ZNF268 / Fold change vs veh, ZNF507 / RFU, DGCR2 / Fold change vs veh, DGCR2 / RFU, WDSUB1 / Fold change vs veh, WDSUB1 / Fold change vs veh, HSP90B1 /// MIR3652 / RFU, ADSS / Fold change vs veh, ADSS / RFU, GK / Fold change vs veh, GK / RFU, ZNF148 / Fold change vs veh, ZNF148 / RFU, TAF9 / Fold change vs veh, TAF9 / RFU, SLC1A5 / Fold change vs veh, SLC1A5 / RFU, SLMO2 / Fold change vs veh, SLMO2 / RFU, ABCC4 / Fold change vs veh, ABCC4 / RFU, LOC101060439 /// RAP1B / Fold change vs veh, LOC101060439 /// RAP1B / RFU, RFX7 / Fold change vs veh, RFX7 / RFU, GTPBP10 / Fold change vs veh, GTPBP10 / RFU, CNEP1R1 / Fold change vs veh, CNEP1R1 / RFU, BIVM-ERCC5 /// ERCC5 / Fold change vs veh, BIVM-ERCC5 /// ERCC5 / RFU, ILF3 / Fold change vs veh, ILF3 / RFU 11762660_at / Fold change /veh 11762660_at / RFU VCAN (11757783_s_at) / Fold change /veh VCAN (11757783_s_at) / RFU DDX43 (11728927_at) / Fold change /veh DDX43 (11728927_at) / RFU KRT8 (11758188_x_at) / Fold change /veh KRT8 (11758188_x_at) / RFU NKD1 (11759106_at) / Fold change /veh NKD1 (11759106_at) / RFU SRD5A1 (11742802_a_at) / Fold change /veh SRD5A1 (11742802_a_at) / RFU TPSAB1 /// TPSB2 (11721975_s_at) / Fold change /veh TPSAB1 /// TPSB2 (11721975_s_at) / RFU GSTM3 (11746129_a_at) / Fold change /veh GSTM3 (11746129_a_at) / RFU IL23R (11737362_x_at) / Fold change /veh IL23R (11737362_x_at) / RFU TMEM51 (11727254_a_at) / Fold change /veh TMEM51 (11727254_a_at) / RFU PIWIL2 (11732686_x_at) / Fold change /veh PIWIL2 (11732686_x_at) / RFU ORM1 (11744905_x_at) / Fold change /veh ORM1 (11744905_x_at) / RFU CCDC152 (11743942_at) / Fold change /veh CCDC152 (11743942_at) / RFU ECM1 (11717891_a_at) / Fold change /veh ECM1 (11717891_a_at) / RFU IL23R (11748794_a_at) / Fold change /veh IL23R (11748794_a_at) / RFU TNFAIP8L3 (11732012_x_at) / Fold change /veh TNFAIP8L3 (11732012_x_at) / RFU MBOAT4 (11741988_at) / Fold change /veh MBOAT4 (11741988_at) / RFU 11764193_at / Fold change /veh 11764193_at / RFU TMEM53 (11763286_at) / Fold change /veh TMEM53 (11763286_at) / RFU MAGEB2 (11727129_at) / Fold change /veh MAGEB2 (11727129_at) / RFU TMEM200A (11744735_a_at) / Fold change /veh TMEM200A (11744735_a_at) / RFU CCDC152 (11751479_a_at) / Fold change /veh CCDC152 (11751479_a_at) / RFU FAM211A (11726209_a_at) / Fold change /veh FAM211A (11726209_a_at) / RFU RGS16 (11746705_a_at) / Fold change /veh RGS16 (11746705_a_at) / RFU VCAN (11755009_s_at) / Fold change /veh VCAN (11755009_s_at) / RFU RHOB (11743442_s_at) / Fold change /veh RHOB (11743442_s_at) / RFU RGS16 (11720943_a_at) / Fold change /veh RGS16 (11720943_a_at) / RFU RGS16 (11720944_at) / Fold change /veh RGS16 (11720944_at) / RFU, VPS4B / Fold change vs veh, VPS4B / RFU, CREB1 / Fold change vs veh, CREB1 / RFU, DNAJC13 / Fold change vs veh, DNAJC13 / RFU, GNAQ / Fold change vs veh, GNAQ / RFU, CDK5R1 / Fold change vs veh, CDK5R1 / RFU, ZRANB3 / Fold change vs veh, ZRANB3 / RFU, CUL4A / Fold change vs veh, CUL4A / RFU, CCNY / Fold change vs veh, CCNY / RFU, UFL1 / Fold change vs veh, UFL1 / RFU, COG3 / Fold change vs veh, COG3 / RFU, DIAPH2 / Fold change vs veh, DIAPH2 / RFU, SKA2 / Fold change vs veh, SKA2 / RFU, AFF3 / Fold change vs veh, AFF3 / RFU, LMF1 / Fold change vs veh, LMF1 / RFU, IPO11 / Fold change vs veh, IPO11 / RFU, DFFB / Fold change vs veh, DFFB / RFU, FOXP1 / Fold change vs veh, FOXP1 / RFU, CARD8 / Fold change vs veh, CARD8 / RFU, STRN3 / Fold change vs veh, STRN3 / RFU, ADK / Fold change vs veh, ADK / RFU, RASSF2 / Fold change vs veh, RASSF2 / RFU, WIPF1 / Fold change vs veh, WIPF1 / RFU, LARP1B / Fold change vs veh, LARP1B / RFU, RASA1 / Fold change vs veh, RASA1 / RFU, RB1 / Fold change vs veh, RB1 / RFU, PPFIA1 / Fold change vs veh, PPFIA1 / RFU, MAT2A / Fold change vs veh, MAT2A / RFU, CCT5 / Fold change vs veh, CCT5 / RFU, WDR92 / Fold change vs veh, WDR92 / RFU, CUX1 / Fold change vs veh, CUX1 / RFU, TTC7A / Fold change vs veh, TTC7A / RFU, TMEM135 / Fold change vs veh, TMEM135 / RFU, DEPTOR / Fold change vs veh, DEPTOR / RFU, CPM / Fold change vs veh, CPM / RFU, DNAJB6 / Fold change vs veh, DNAJB6 / RFU, CACNA2D3 / Fold change vs veh, CACNA2D3 / RFU, DTX4 / Fold change vs veh, DTX4 / RFU, TFCP2 / Fold change vs veh, TFCP2 / RFU, GMCL1 /// GMCL1P1 / Fold change vs veh, GMCL1 /// GMCL1P1 / RFU, AEBP2 / Fold change vs veh, AEBP2 / RFU, SNHG1 /// SNORD22 /// SNORD25 /// SNORD26 /// SNORD27 /// SNORD28 /// SNORD29 /// SNORD31 / Fold change vs veh, SNHG1 /// SNORD22 /// SNORD25 /// SNORD26 /// SNORD27 /// SNORD28 /// SNORD29 /// SNORD31 / Fold change (Aza/veh), C12orf56 (ProbeSet 11735607_a_at) / Fold change (ACY-1035/veh), C12orf56 (ProbeSet 11735607_a_at) / Fold change (Aza/veh), FGFR1OP (ProbeSet 11751329_s_at) / Fold change (ACY-1035/veh), FGFR1OP (ProbeSet 11751329_s_at) / Fold change (Aza/veh), VPS36 (ProbeSet 11739960_a_at) / Fold change (ACY-1035/veh), VPS36 (ProbeSet 11739960_a_at) / RFU SYPL1 (11715823_x_at) / Fold change /veh SYPL1 (11715823_x_at) / RFU IGFBP7 (11715501_s_at) / Fold change /veh IGFBP7 (11715501_s_at) / RFU REEP3 (11722064_at) / Fold change /veh REEP3 (11722064_at) / RFU IGLL1 (11728026_x_at) / Fold change /veh IGLL1 (11728026_x_at): dose or concentration left out as unconfirmed
Settings: gene C12orf56; Azacitidine vs DMSO; LIST F

Nc1ncn([C@@H]2O[C@H](CO)[C@@H](O)[C@H]2O)c(=O)n1 [azacitidine]
Fold change (Aza/veh), C12orf56 (ProbeSet 11735607_a_at): 1.01
